Assays:
B2 bradykinin receptor = target: T1, B2 bradykinin receptor (Homo sapiens, UniProt P30411); format: cell membranes, Membrane; details: chem-1; note: in other assays of this panel Not Active means under 50% inhibition at 10 µM
T1 sequence (P30411 whole entry): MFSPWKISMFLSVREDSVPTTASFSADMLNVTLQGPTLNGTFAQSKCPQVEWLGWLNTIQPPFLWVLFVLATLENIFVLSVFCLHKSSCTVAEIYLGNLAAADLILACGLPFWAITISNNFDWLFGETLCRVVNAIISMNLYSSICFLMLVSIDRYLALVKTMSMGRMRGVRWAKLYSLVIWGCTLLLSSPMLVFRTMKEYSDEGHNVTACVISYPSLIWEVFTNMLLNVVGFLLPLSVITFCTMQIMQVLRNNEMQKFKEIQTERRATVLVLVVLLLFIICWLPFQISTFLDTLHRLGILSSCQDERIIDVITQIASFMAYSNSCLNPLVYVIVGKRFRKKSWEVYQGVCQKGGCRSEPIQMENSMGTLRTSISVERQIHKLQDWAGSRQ

Estrogen receptor = target: T2, Estrogen receptor (Homo sapiens, UniProt P03372); details: sf9; note: in other assays of this panel Not Active means under 50% inhibition at 10 µM
T2 sequence (P03372 whole entry): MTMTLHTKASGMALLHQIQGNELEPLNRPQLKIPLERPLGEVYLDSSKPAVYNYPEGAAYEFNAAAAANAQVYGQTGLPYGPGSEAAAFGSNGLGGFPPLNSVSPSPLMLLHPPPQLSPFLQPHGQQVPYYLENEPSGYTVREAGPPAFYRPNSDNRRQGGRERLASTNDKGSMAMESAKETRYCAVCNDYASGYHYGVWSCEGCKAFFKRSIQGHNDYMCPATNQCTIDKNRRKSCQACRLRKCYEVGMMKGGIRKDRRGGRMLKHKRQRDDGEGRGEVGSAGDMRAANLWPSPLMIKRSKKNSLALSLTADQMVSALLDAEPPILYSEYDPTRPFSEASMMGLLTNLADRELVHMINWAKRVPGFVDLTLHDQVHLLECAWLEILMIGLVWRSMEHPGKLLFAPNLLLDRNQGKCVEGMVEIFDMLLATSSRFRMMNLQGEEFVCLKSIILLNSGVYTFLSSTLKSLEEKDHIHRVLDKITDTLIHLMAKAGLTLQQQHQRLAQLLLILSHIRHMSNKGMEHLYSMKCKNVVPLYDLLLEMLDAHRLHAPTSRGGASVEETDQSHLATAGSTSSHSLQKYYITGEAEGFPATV

[1] = target: C-C chemokine receptor type 2 (Homo sapiens, UniProt P41597); format: cell membranes, CHO-K1, Membrane; details: cho-k1; note: in other assays of this panel Not Active means under 50% inhibition at 10 µM
C-C chemokine receptor type 2, sequence (P41597 whole entry): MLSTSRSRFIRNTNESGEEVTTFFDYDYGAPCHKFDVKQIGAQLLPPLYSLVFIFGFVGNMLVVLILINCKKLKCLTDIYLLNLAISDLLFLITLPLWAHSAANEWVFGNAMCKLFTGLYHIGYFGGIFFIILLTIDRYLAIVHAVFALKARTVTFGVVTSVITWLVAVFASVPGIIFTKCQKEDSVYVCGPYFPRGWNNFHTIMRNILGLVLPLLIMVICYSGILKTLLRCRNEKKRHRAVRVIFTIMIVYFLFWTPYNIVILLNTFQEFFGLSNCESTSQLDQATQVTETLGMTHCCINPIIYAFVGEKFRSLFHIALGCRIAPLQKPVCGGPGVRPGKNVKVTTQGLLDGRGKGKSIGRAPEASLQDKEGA

[2] = target: 5-hydroxytryptamine receptor 1B (Rattus norvegicus, UniProt P28564); format: cell membranes, Wistar, Cerebral cortex, Membrane; note: in other assays of this panel Not Active means under 50% inhibition at 10 µM
5-hydroxytryptamine receptor 1B, sequence (P28564 whole entry): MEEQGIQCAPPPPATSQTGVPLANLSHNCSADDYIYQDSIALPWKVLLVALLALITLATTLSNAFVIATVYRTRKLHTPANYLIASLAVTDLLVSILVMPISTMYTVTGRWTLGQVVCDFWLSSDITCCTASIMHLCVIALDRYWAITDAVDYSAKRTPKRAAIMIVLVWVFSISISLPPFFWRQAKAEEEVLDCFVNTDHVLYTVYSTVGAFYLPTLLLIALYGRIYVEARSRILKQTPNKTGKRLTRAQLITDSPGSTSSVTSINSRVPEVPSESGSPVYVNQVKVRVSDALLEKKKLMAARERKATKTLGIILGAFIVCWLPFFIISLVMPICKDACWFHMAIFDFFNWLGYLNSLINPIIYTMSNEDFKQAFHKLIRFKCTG

[3] = DRUGMATRIX: Calcium Channel Type L, Phenylalkylamine radioligand binding (ligand: [3H] (-)-Desmethoxyverapamil (D-888)); format: cell membranes, Rattus norvegicus, Wistar, Brain, Membrane; details: Not Active = under 50% inhibition at 10 µM
[4] = target: C-C chemokine receptor type 5 (Homo sapiens, UniProt P51681); format: cell membranes, HEK293, Membrane; details: hek293; note: in other assays of this panel Not Active means under 50% inhibition at 10 µM
C-C chemokine receptor type 5, sequence (P51681 whole entry): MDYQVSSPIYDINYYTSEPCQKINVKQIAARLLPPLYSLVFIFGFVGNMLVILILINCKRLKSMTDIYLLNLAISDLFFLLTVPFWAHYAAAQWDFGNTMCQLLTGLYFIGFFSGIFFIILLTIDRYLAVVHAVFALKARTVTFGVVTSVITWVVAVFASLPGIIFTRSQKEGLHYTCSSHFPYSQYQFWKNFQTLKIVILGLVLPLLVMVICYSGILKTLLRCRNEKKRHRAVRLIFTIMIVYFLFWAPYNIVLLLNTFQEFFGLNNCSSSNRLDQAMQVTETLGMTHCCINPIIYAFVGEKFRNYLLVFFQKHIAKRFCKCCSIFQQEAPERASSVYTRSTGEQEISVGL

Cytochrome P450 2A6 = target: T3, Cytochrome P450 2A6 (Homo sapiens, UniProt P11509); details: bti-tn-5b1-4; note: in other assays of this panel Not Active means under 50% inhibition at 10 µM
T3 sequence (P11509 whole entry): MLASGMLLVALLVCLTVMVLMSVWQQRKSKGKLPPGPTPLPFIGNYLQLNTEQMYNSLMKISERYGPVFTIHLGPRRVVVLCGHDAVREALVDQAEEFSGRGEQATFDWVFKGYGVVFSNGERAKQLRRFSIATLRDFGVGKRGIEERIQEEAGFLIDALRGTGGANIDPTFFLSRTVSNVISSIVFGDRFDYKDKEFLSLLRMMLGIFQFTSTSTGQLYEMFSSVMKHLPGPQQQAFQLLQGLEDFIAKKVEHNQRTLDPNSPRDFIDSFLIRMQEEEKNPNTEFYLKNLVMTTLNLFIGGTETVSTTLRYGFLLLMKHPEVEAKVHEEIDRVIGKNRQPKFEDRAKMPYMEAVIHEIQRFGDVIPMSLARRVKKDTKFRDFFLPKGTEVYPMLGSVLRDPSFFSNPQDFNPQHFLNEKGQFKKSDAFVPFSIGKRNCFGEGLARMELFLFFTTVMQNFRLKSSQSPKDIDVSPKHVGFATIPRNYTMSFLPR

Oc1ncnc2[nH]ncc12 [ALLOPURINOL]
Not Active: IC50 (B2 bradykinin receptor) | IC50 (Estrogen receptor) | IC50 [1] | IC50 [2] | IC50 [3] | Ki [3] | IC50 [4] | IC50 (Cytochrome P450 2A6) | Ki (Cytochrome P450 2A6)

C[C@@H]1[C@H](O)[C@@H](C)/C=C/C=C/C=C/C=C/C=C/C=C/C=C/[C@H](O[C@@H]2O[C@H](C)[C@@H](O)[C@H](N)[C@@H]2O)C[C@@H]2O[C@](O)(C[C@@H](O)C[C@@H](O)[C@H](O)CC[C@@H](O)C[C@@H](O)CC(=O)O[C@H]1C)C[C@H](O)[C@H]2C(=O)O [AMPHOTERICIN B]
Not Active: IC50 (B2 bradykinin receptor) | IC50 (Estrogen receptor) | IC50 [1] | IC50 [2] | IC50 [3] | Ki [3] | IC50 [4] | IC50 (Cytochrome P450 2A6) | Ki (Cytochrome P450 2A6)

CCO [ALCOHOL]
Not Active: IC50 (B2 bradykinin receptor) | IC50 (Estrogen receptor) | IC50 [1] | IC50 [2] | IC50 [3] | Ki [3] | IC50 [4] | IC50 (Cytochrome P450 2A6) | Ki (Cytochrome P450 2A6)

COc1cc(/C=C/C(=O)O)ccc1O [FERULATE]
Not Active: IC50 (B2 bradykinin receptor) | IC50 (Estrogen receptor) | IC50 [1] | IC50 [2] | IC50 [3] | Ki [3] | IC50 [4] | IC50 (Cytochrome P450 2A6) | Ki (Cytochrome P450 2A6)

CNC[C@H](O)c1ccc(O)c(O)c1 [EPINEPHRINE]
Not Active: IC50 (B2 bradykinin receptor) | IC50 (Estrogen receptor) | IC50 [1] | IC50 [2] | IC50 [3] | Ki [3] | IC50 [4] | IC50 (Cytochrome P450 2A6) | Ki (Cytochrome P450 2A6)

CC1(COc2ccc(CC3SC(=O)NC3=O)cc2)CCCCC1 (centres undefined) [CIGLITAZONE]
Not Active: IC50 (B2 bradykinin receptor) | IC50 (Estrogen receptor) | IC50 [1] | IC50 [2] | IC50 [3] | Ki [3] | IC50 [4] | IC50 (Cytochrome P450 2A6) | Ki (Cytochrome P450 2A6)

NC(N)=Nc1nc(CSCCC(N)=NS(N)(=O)=O)cs1 [FAMOTIDINE]
Not Active: IC50 (B2 bradykinin receptor) | IC50 (Estrogen receptor) | IC50 [1] | IC50 [2] | IC50 [3] | Ki [3] | IC50 [4] | IC50 (Cytochrome P450 2A6) | Ki (Cytochrome P450 2A6)

Nc1nc(F)nc2c1ncn2[C@@H]1O[C@H](CO)[C@@H](O)[C@@H]1O [FLUDARABINE]
Not Active: IC50 (B2 bradykinin receptor) | IC50 (Estrogen receptor) | IC50 [1] | IC50 [2] | IC50 [3] | Ki [3] | IC50 [4] | IC50 (Cytochrome P450 2A6) | Ki (Cytochrome P450 2A6)

NC(=O)NC(=O)Cc1ccccc1 [PHENACEMIDE]
Not Active: IC50 (B2 bradykinin receptor) | IC50 (Estrogen receptor) | IC50 [1] | IC50 [2] | IC50 [3] | Ki [3] | IC50 [4] | IC50 (Cytochrome P450 2A6) | Ki (Cytochrome P450 2A6)

O=c1[nH]cnc2c1ncn2[C@H]1CC[C@@H](CO)O1 [DIDANOSINE]
Not Active: IC50 (B2 bradykinin receptor) | IC50 (Estrogen receptor) | IC50 [1] | IC50 [2] | IC50 [3] | Ki [3] | IC50 [4] | IC50 (Cytochrome P450 2A6) | Ki (Cytochrome P450 2A6)

Clc1cc(Cl)c(OCC#CI)cc1Cl [HALOPROGIN]
Not Active: IC50 (B2 bradykinin receptor) | IC50 (Estrogen receptor) | IC50 [1] | IC50 [2] | IC50 [3] | Ki [3] | IC50 [4] | IC50 (Cytochrome P450 2A6) | Ki (Cytochrome P450 2A6)

Cc1c(N)nc([C@H](CC(N)=O)NC[C@H](N)C(N)=O)nc1C(=O)N[C@H](C(=O)N[C@H](C)[C@@H](O)[C@H](C)C(=O)N[C@H](C(=O)NCCc1nc(-c2nc(C(=O)NCCC[S+](C)C)cs2)cs1)[C@@H](C)O)[C@@H](O[C@@H]1O[C@@H](CO)[C@@H](O)[C@H](O)[C@@H]1O[C@H]1O[C@H](CO)[C@@H](O)[C@H](OC(N)=O)[C@@H]1O)c1c[nH]cn1.[Br-] [BLEOMYCIN A2]
Not Active: IC50 (B2 bradykinin receptor) | IC50 (Estrogen receptor) | IC50 [1] | IC50 [2] | IC50 [3] | Ki [3] | IC50 [4] | IC50 (Cytochrome P450 2A6) | Ki (Cytochrome P450 2A6)

CC(C)Cc1ccc([C@H](C)C(=O)O)cc1 [DEXIBUPROFEN]
Not Active: IC50 (B2 bradykinin receptor) | IC50 (Estrogen receptor) | IC50 [1] | IC50 [2] | IC50 [3] | Ki [3] | IC50 [4] | IC50 (Cytochrome P450 2A6) | Ki (Cytochrome P450 2A6)

COc1ccc(C[C@H](N)C(=O)N[C@H]2[C@@H](O)[C@H](n3cnc4c(N(C)C)ncnc43)O[C@@H]2CO)cc1 [PUROMYCIN]
Not Active: IC50 (B2 bradykinin receptor) | IC50 (Estrogen receptor) | IC50 [1] | IC50 [2] | IC50 [3] | Ki [3] | IC50 [4] | IC50 (Cytochrome P450 2A6) | Ki (Cytochrome P450 2A6)

CCC1(c2ccccc2)C(=O)NC(=O)NC1=O [PHENOBARBITAL]
Not Active: IC50 (B2 bradykinin receptor) | IC50 (Estrogen receptor) | IC50 [1] | IC50 [2] | IC50 [3] | Ki [3] | IC50 [4] | IC50 (Cytochrome P450 2A6) | Ki (Cytochrome P450 2A6)

O=C1c2ccccc2C(=O)C1c1ccccc1 [PHENINDIONE]
Not Active: IC50 (B2 bradykinin receptor) | IC50 (Estrogen receptor) | IC50 [1] | IC50 [2] | IC50 [3] | Ki [3] | IC50 [4] | IC50 (Cytochrome P450 2A6) | Ki (Cytochrome P450 2A6)

OC[C@H]1OC2C3[C@@H](CO)OC(O[C@H]4[C@H](O)[C@@H](O)[C@@H](O[C@H]5[C@H](O)[C@@H](O)[C@@H](O[C@H]6[C@H](O)[C@@H](O)[C@@H](O[C@H]7[C@H](O)[C@@H](O)[C@@H](O[C@H]8[C@H](O)[C@@H](O)[C@@H](O[C@H]9[C@H](O)[C@@H](O)C(OC1[C@H](O)[C@H]2O)O[C@@H]9CO)O[C@@H]8CO)O[C@@H]7CO)O[C@@H]6CO)O[C@@H]5CO)O[C@@H]4CO)[C@H](O)[C@H]3O
Not Active: IC50 (B2 bradykinin receptor) | IC50 (Estrogen receptor) | IC50 [1] | IC50 [2] | IC50 [3] | Ki [3] | IC50 [4] | IC50 (Cytochrome P450 2A6) | Ki (Cytochrome P450 2A6)

CO[C@H]1O[C@@H]2O[C@@]3(C)CC[C@H]4[C@H](C)CC[C@@H]([C@H]1C)[C@@]24OO3
Not Active: IC50 (B2 bradykinin receptor) | IC50 (Estrogen receptor) | IC50 [1] | IC50 [2] | IC50 [3] | Ki [3] | IC50 [4] | IC50 (Cytochrome P450 2A6) | Ki (Cytochrome P450 2A6)

CC(C)Cn1cnc2c(N)nc3ccccc3c21 [IMIQUIMOD]
Not Active: IC50 (B2 bradykinin receptor) | IC50 (Estrogen receptor) | IC50 [1] | IC50 [2] | IC50 [3] | Ki [3] | IC50 [4] | IC50 (Cytochrome P450 2A6) | Ki (Cytochrome P450 2A6)

COc1cc(NC(C)CCCN)c2ncccc2c1 (centres undefined) [PRIMAQUINE]
Not Active: IC50 (B2 bradykinin receptor) | IC50 (Estrogen receptor) | IC50 [1] | IC50 [2] | IC50 [3] | Ki [3] | IC50 [4] | IC50 (Cytochrome P450 2A6) | Ki (Cytochrome P450 2A6)

O=C(O)COC(=O)Cc1ccccc1Nc1c(Cl)cccc1Cl [ACECLOFENAC]
Not Active: IC50 (B2 bradykinin receptor) | IC50 (Estrogen receptor) | IC50 [1] | IC50 [2] | IC50 [3] | Ki [3] | IC50 [4] | IC50 (Cytochrome P450 2A6) | Ki (Cytochrome P450 2A6)

From ChEMBL document CHEMBL1909046, “DrugMatrix in vitro pharmacology data”
